Test results published in patent publication US10786479B2, “Methods for inhibiting conversion of carnitine to trimethylamine (TMA)” (The Procter & Gamble Company, priority 2015, dated 2020).

molecular target: T1, Ec YeaWX lysate (Escherichia coli YeaW/YeaX) (Escherichia coli, UniProt P0ABR7); test: Inhibition of d9-TMA formation from d9-carnitine in Ec YeaWX lysate (LC-MS/MS); format: biochemical; conditions: Ec YeaWX lysate 2.0 mg/mL protein, 250 μM NADPH, 50 μM d9-carnitine chloride, 37° C. for two hours; read-out: TMA Inhibition (IC50, mol/L)
T1 construct: create a 5′ NdeI restriction site including the ATG start codon of yeaW; create a PstI restriction site just 3′ of the yeaX TAG stop codon; made in house; host or cells: E. coli BL21 (DE3), pET30a, IPTG induction; unpurified French-press lysate supernatant
T1 sequence (P0ABR7 whole entry): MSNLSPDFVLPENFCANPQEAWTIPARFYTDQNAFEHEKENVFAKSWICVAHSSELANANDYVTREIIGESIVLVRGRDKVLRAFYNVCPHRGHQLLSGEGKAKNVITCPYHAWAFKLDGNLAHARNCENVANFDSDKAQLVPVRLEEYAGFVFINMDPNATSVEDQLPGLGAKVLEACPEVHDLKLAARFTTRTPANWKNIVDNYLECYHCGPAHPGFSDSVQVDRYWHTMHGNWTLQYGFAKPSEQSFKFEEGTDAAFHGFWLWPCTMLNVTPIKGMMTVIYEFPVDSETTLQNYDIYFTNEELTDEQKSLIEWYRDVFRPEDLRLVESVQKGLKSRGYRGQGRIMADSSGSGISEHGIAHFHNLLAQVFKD
From the text: This example provides an exemplary assay for identifying and characterizing compounds that inhibit the formation of TMA from carnitine.
Escherichia coli BL21*DE3::pET30a-Ec yeaWX #1 (Ec YeaWX) strain was generated as described below. The contiguous Escherichia coli coding sequence yeaW (equivalent to uniprot ID P0ABR7.1 (YeaW) (SEQ ID NO: 2)) and yeaX (equivalent to uniprot ID P76254.1 (YeaX) (SEQ ID NO: 3)) were PCR amplified from Escherichia coli strain K-12 substr. BW25113 genomic DNA. PCR primers (YeaW_Nde_I_fwd2—SEQ ID NO: 4; YeaX_rev2—SEQ ID NO: 5) were designed to create a 5′ NdeI restriction site including the ATG start codon of yeaW and create a PstI restriction site just 3′ of the yeaX TAG stop codon.
The amplicon was restricted and cloned into the NdeI and PstI sites of the plasmid pET30a downstream of the inducible T7 promoter. A blast search of the resulting cloned amplicon DNA sequence (SEQ ID NO: 1) corresponded to nucleotide range 1884665 to 1886810 of Escherichia coli str. K-12 substr. MG1655 (NCBI Accession # NC_000913). The construct was transformed and grown in E. coli BL21 (DE3) and the recombinant yeaWX overexpressed by addition of isopropyl β-D-1-thiogalactopyranoside (IPTG).
The bacteria were grown aerobically in 50 mL LB broth (Difco #244620; 10 g/L Tryptone, 5 g/L yeast extract, 10 g/L NaCl, 50 μg/mL kanamycin), in a 500 mL Erlenmeyer flask. The cultures were inoculated from glycerol stock of BL21*DE3::pET30a-Ec yeaWX #1 strain. Strains were cultured all day at 37° C. with 250 rpm shaking. Two 300 mL Minimal M9 Medium (6 g/L Na2HPO4, 3 g/L KH2PO4, 0.5 g/L NaCl, 1 g/L NH4Cl, 0.1 mM CaCl2, 1 mM MgSO4, 0.2% Dextrose, 1 mg/L Thiamine, 50 μg/mL kanamycin), in 1 L Erlenmeyer flasks, were inoculated with 5 mL of the LB broth day culture and cultured overnight at 37° C. with 250 rpm shaking. The overnight cultures were used to inoculate twelve 1 L cultures of Minimal M9 media in 2.8 L fluted Erlenmeyer flasks to an OD 600 nm of 0.05 (typically approximately 28 mLs), which were grown at 37° C. with 250 rpm shaking until an OD600 of approximately 0.4 was reached. Expression of YeaWX was induced with 1 mM IPTG and the induced cultures were further grown overnight at 37° C. with 250 rpm shaking. The biomass was pelleted by centrifugation at 6000×g for 12 minutes at 4° C. The cell pellet was suspended in 240 mL of ice-cold 1× Phosphate Buffered Saline (Ca^2+ and Mg^2+ free). Ninety micrograms of Lysozyme (Sigma # L6876 Lot # SLBG8654V; Sigma-Aldrich Corp., St. Louis, Mo.) was added and incubated with 320 rpm shaking for 30 minutes at 4° C. Lysis was achieved via French press with a 4° C. prechilled 1″ diameter chamber at 1000 psi (high ratio; internal PSI equivalent ˜16000). The lysate was centrifuged at 6,000×g for 12 minutes at 4° C. to pellet extra debris. Glycerol was added to the centrifuged lysate supernatant at a final concentration of 15% A protein concentration of the centrifuged lysate supernatant was determined by a BCA Protein Assay Kit (Pierce #23225), typically in the 2.5 to 4.5 mg/ml range. The centrifuged Ec YeaWX lysate supernatant was aliquoted into 20 mL volumes and stored frozen at −80° C.
Ec YeaWX lysate was diluted to 2.0 mg/mL protein with 1× Dulbecco's phosphate buffered saline (DPBS) plus 15% glycerol. Nicotinamide adenine dinucleotide phosphate (NADPH) was added to 250 μM. One hundred and fifty microliters of Ec YeaWX lysate was dispensed into a deep-well plate (polypropylene, 2 mL volume, Corning Axygen catalogue # P-DW-20-C). […] The plates were agitated on a plate shaker for 1 minute. d9-carnitine chloride (1.5 μL of 5 mM) was added to all wells to reach a final d9-carnitine chloride concentration of 50 μM.
The plates were again agitated on a plate shaker for 1 minute and incubated at 37° C. for two hours. After incubation, 1.5 μL of formic acid was added to each well (final concentration=1% formic acid). The plates were agitated on a plate shaker for 1 minute and placed on ice. […]

Row | Compound | IC50
1 | S=C=NCC1CCCCC1 [Compound 8, Cyclohexylmethyl isothiocyanate] | 38.1 µM
2 | CN(C)CCCN=C=S [Compound 41, 3-isothiocyanato-N,N-dimethyl-1-Propanamine] | 320 µM
3 | O=C(N=C=S)c1ccccc1 [Compound 21, Benzoyl isothiocyanate] | 138 µM
4 | COc1ccc(N=C=S)cc1 [Compound 28, 4-Methoxyphenyl isothiocyanate] | 5.76 µM
5 | CC(C)(C)OC(=O)Nc1ccc(N=C=S)cc1 [Compound 23, N-Boc-4-isothiocyanatoaniline] | 15.7 µM
6 | S=C=NCc1ccccc1 [Compound 5, Benzyl isothiocyanate] | 8.37 µM
7 | COc1cccc(N=C=S)c1 [Compound 34, 3-Methoxyphenyl isothiocyanate] | 9.59 µM
8 | CCN(CC)CCCN=C=S [Compound 7, 3-(Diethylamino)propyl isothiocyanate] | 146 µM
9 | CCC(C)N=C=S (stereo not drawn) [Compound 10, sec-butyl isothiocyanate] | 146 µM
10 | CC(C)(C)OC(=O)NCCCCN=C=S [Compound 22, N-Boc-4-isothiocyanatobutylamine] | 17.7 µM
11 | COc1ccccc1N=C=S [Compound 32, 2-Methoxyphenyl isothiocyanate] | 33.3 µM
12 | CC(C)N=C=S [Compound 15, Isopropyl isothiocyanate] | 200 µM
13 | CC(=O)O[C@H]1[C@H](OC(C)=O)[C@@H](N=C=S)OC[C@H]1OC(C)=O [Compound 39, 2,3,4-Tri-O-acetyl-α-D-arabinopyranosyl isothiocyanate] | 50.1 µM
14 | COc1ccc(OC)c(N=C=S)c1 [Compound 33, 2,5-Dimethoxyphenyl isothiocyanate] | 47.7 µM
15 | S=C=Nc1cccc2ccccc12 [Compound 19, 1-Naphthyl isothiocyanate] | 12.5 µM
16 | CCCCCC12CCC(C(=O)Oc3ccc(N=C=S)cc3)(CC1)CC2 [Compound 37, 4-Isothiocyanatophenyl 4-pentylbicyclo[2.2.2] octane-1-carboxylate] | > 1000 µM
17 | CC(C)CCN=C=S [Compound 16, 1-isothiocyanato-3-methylbutane] | 75.9 µM
18 | CC(C)(C)N=C=S [Compound 2, tert-Butyl isothiocyanate] | > 1000 µM
19 | CCN(CC)CCN=C=S [Compound 40, Ethanamine, N,N-diethyl-2-isothiocyanato] | 320 µM
20 | S=C=Nc1ccc(Cl)cc1 [Compound 27, 4-Chlorophenyl isothiocyanate] | 4.57 µM
21 | CCCCCCN=C=S [Compound 17, Hexyl isothiocyanate] | 43.5 µM

Row | Compound | IC50
22 | Ethyl isothiocyanate [Compound 11] | 82.2 µM
23 | CCOC(=O)CN=C=S [Compound 36, Ethyl isothiocyanatoacetate] | 30 µM
24 | Cc1cccc(N=C=S)c1 [Compound 3, m-Tolyl isothiocyanate] | 14.5 µM
25 | S=C=NC1CCCCC1 [Compound 30, Cyclohexyl isothiocyanate] | 38.8 µM
26 | COc1ccc(C)cc1N=C=S [Compound 1, 2-Methoxy-5-methylphenyl isothiocyanate] | 61.6 µM
27 | Methyl isothiocyanate [Compound 14] | 149 µM
28 | CSc1ccc(N=C=S)cc1 [Compound 4, 4-(Methylthio)phenyl isothiocyanate] | 10.8 µM
29 | S=C=Nc1ccc(Br)cc1 [Compound 20, 4-Bromophenyl isothiocyanate] | 4.72 µM
30 | S=C=NCCN1CCCCC1 [Compound 35, 2-Piperidinoethyl isothiocyanate] | 104 µM
31 | C[C@H](N=C=S)c1ccccc1 [Compound 26, (S)-(+)-alpha-Methylbenzyl isothiocyanate] | 7.34 µM
32 | S=C=NCCCN1CCOCC1 [Compound 24, 3-(4-Morpholino)propyl isothiocyanate] | 68.5 µM
33 | CCc1ccc(N=C=S)cc1 [Compound 31, 4-Ethylphenyl isothiocyanate] | 17.3 µM
34 | CCCCCN=C=S [Compound 6, 1-pentyl isothiocyanate] | 32.2 µM
35 | CC(C)CN=C=S [Compound 12, Isobutyl isothiocyanate] | 74.5 µM
36 | S=C=NCCc1ccc(Cl)cc1 [Compound 9, 2-(4-Chlorophenethyl) isothiocyanate] | 12.7 µM
37 | CCCCN=C=S [Compound 13, Butyl isothiocyanate] | 63.6 µM
38 | S=C=Nc1ccccc1 [Compound 18, Phenyl isothiocyanate] | 6.45 µM
39 | S=C=NCCN1CCOCC1 [Compound 25, 2-(4-Morpholino)ethyl isothiocyanate] | 69 µM
40 | CN(C)CCN=C=S [Compound 42, 2-Isothiocyanato-N,N-dimethylethanamine] | 164 µM
41 | S=C=NC(c1ccccc1)c1ccccc1 [Compound 38, Benzhydryl isothiocyanate] | 3.05 µM
42 | S=C=N[C@@H]1C[C@H]2CC[C@@H]1C2 (relative stereo) [Compound 29, exo-2-Norbornyl-isothiocyanate] | 21.6 µM
